{"source": "patent US20100254940A1", "about": "“Compositions and Methods for Regulating an Immune Response in a Subject” (INNATE PHARMA, S.A., priority 2002, published 2010)", "key": {"Vγ9Vδ2 T cells [1]": {"test_system": "Vγ9Vδ2 T cells", "test": "Phosphostim (BrHPP) i.v. pharmaco-dynamic GLP study in cynomolgus monkeys", "type": "in vivo", "method": "(§1) The objective of this GLP study was to explore further the pharmaco-dynamic properties of Phosphostim (BrHPP, 200 mg; GMP batch) alone and in combination with IL-2 following several i.v. administrations to cynomolgus monkeys. In particular, this study was planned to evaluate: • A dose-effect relationship between Phosphostim injection and γδ T cell peripheral amplification; • The pharmaco-dynamic effect of a second, third and up to fifth administration of Phosphostim in male and female animals; • The functionality of in vivo induced γδ T cells, by dosing systemic cytokines after Phosphostim treatment; • The effect of treatment with IL-2 alone and to validate the selected dose of 0.6 million IU/day/animal.\n(§2) Phosphostim was administered i.v., as slow infusions (50 ml in 30 minutes), at various dose levels to five groups of two animals (one male+one female). Males received two successive injections of BrHPP (Day 0 and Day 22) before sacrifice and females four injections (Days 0, 22, 52 and 84). Two females, selected upon their level of response to the 4th treatment, received a supplementary injection of BrHPP alone at Day 91, during γδ cell peripheral increase, for systemic cytokine dosages.\nThe administration schedule of the test product can be summarized as follows in Table 1:\nThe dose levels in Table 1 are can be converted to BrHPP pure (anionic) form equivalent by multiplying each dose by 0.6. Thus, the doses of 0.2, 4, 20, 50, 80, 120 and 160 mg/kg in Table 1 are equivalent respectively to 0.12, 2.4, 12, 30, 48, 72 and 96 mg/kg of anionic form BrHPP. • IL-2 was administered s.c. at the following frequency: from Day 0 to Day 6 and from Day 22 to Day 28 for all animals; from Day 52 to 58 and from Day 84 to Day 90 for all the females. IL-2 was administered as two separate s.c. injections approximately 8 hours apart of 0.3 million IU, corresponding to 0.6 million IU/day/animal."}, "IFNγ": {"test_system": "IFNγ", "test": "Serum IFNγ by ELISA after BrHPP injection in cynomolgus monkeys", "type": "in vivo, cynomolgus monkeys (M. fascicularis)", "method": "(§3) Serum cytokines (TNFα and INFg) were detected and quantified with the BIOSOURCE Cytoscreen™ ELISA monkey TNFa and Cytoscreen™ ELISA monkey INFg respectively (purchased from CliniSciences, Montrouge, France) according to the manufacturer's instructions.\n(§4) Samples of sera were collected from group 2 animals during the first dose range assay (0 to 80 mg/kg) just before injection then 1 and 4 hours post injection, and assayed by ELISA specific for TNFa and IFNg.\nas §2"}, "TNFα": {"test_system": "TNFα", "test": "Serum TNFα by ELISA after BrHPP injection in cynomolgus monkeys", "type": "in vivo, cynomolgus monkeys (M. fascicularis)", "method": "as §3, §4, §1, §2"}, "[2]": {"test": "Vital parameters, haematology and serum clinical chemistry follow up in cynomolgus monkeys (non-GLP studies)", "type": "in vivo, cynomolgus monkeys (M. fascicularis)", "method": "Classical blood parameters follow-up (red blood cell, platelets total and differential white blood cells counts, haemoglobin, mean corpuscular haemoglobin, mean corpuscular haemoglobin concentration) were performed at the sites of monkey handling, just before and after each administration and twice weekly.\nOn all animals in group 2, 48 or 72 hours after each injection, 16 blood chemistry parameters were measured (sodium, potassium, chloride, calcium, inorganic phosphorus, glucose, urea, total cholesterol, total bilirubin, total protein, albumin, globulin, creatinin, alkaline phosphatase, aspartate aminotransferase and […] aminotransferase).\nThe animals were observed daily and during and after each injection for any change in vital and clinical parameters (general behaviour, skin, hair, respiratory system, central nervous system). Animals were regularly weighed, every 3 days (group 1) or weekly (group 2). Body temperature (on vigil animals of group 2) was measured before and at the end of each BrHPP/IL2 (or IL2 alone) infusion and once daily during the 5 days following administration. Heart rate and blood pressure were recorded for all animals in group 2, before and at the end of each administration."}, "Vγ9Vδ2 T cells [3]": {"test_system": "Vγ9Vδ2 T cells", "test": "Expansion of peripheral blood Vγ9Vδ2 T cells from PBMCs of mRCC patients with BrHPP and IL2", "type": "cell-based, human", "conditions": "3 μM BrHPP + IL2, 15 days; 7 patients out of 12", "method": "Blood samples from 12 RCC patients (50 ml) were collected just before or no more than 2 months after the nephrectomy. PBMCs were isolated by centrifugation on Ficoll-Hypaque density gradient (Amersham Biosciences). PBMCs from one healthy volunteer was used as control.\nTen million PBMCs were cultured at 2×10^6/ml in 24 well plate in RPMI 1640 supplemented with 10% v/v fetal calf serum (Fetal Clone irradiated, Hyclone).\nPolyclonal Vγ9Vδ2 T cell lines were specifically expanded in presence of 3 μM BrHPP molecule (batch INPA-0214) and 100 IU/ml IL2 during 15 days.\nEvery three days, the volume corresponding to half culture medium was replaced by fresh medium containing only 200 IU/ml IL2\nBefore in vitro culture, phenotype of 2×10^5 PBMCs from RCC patients was analyzed using the following combinations of fluorescein isothiocyanate (FITC), phycoerythrin (PE) and phycoreythrin-cyanin 5 (PC5) conjugated antibodies to determine the NK, αβ and γδ T cells population (all purchased from Beckman-Coulter): CD3-PC5/Vδ2-FITC/IgG1-PE, CD8-PE, CD56-PE. At day 15 of the culture, a triple staining was performed on the expanded Vδ9Vδ2 T cells bulk. The following antibodies combinations were performed: […]"}, "γδ T cells": {"test_system": "γδ T cells", "test": "Supplementary pharmaco-dynamics studies, consecutive injections of BrHPP in male cynomolgus monkeys", "type": "in vivo", "method": "We have thus performed other non-GLP pharmaco-dynamics studies in male cynomolgus monkeys in order to further document the features of in vivo γδ T cells response to consecutive injections of BrHPP, varying either the dose or the time-laps between injections.\nIn vivo amplification was assessed after 4 successive injections of 20 or 80 mg/kg Phosphostim®, 4 or 8 weeks apart."}, "[4]": {"conditions": "fifth injection 80 mg/kg without IL2 at peak after fourth injection"}}}
{"substance": "3-(bromomethyl)-3-butanol-1-yl-diphosphate [BrHPP]", "values": [{"measurement": "γδ cell number increase", "setting": "Vγ9Vδ2 T cells [1]; 20 mg/kg (12 mg/kg anionic form) + IL-2", "value": 20, "unit": "fold"}, {"measurement": "increase in circulating γδ cell count", "setting": "Vγ9Vδ2 T cells [1]; at around 120 mg/kg (EC50) + IL-2", "value": 100, "unit": "fold"}, {"measurement": "circulating Vγ9Vδ2 T cells vs before treatment", "setting": "Vγ9Vδ2 T cells [1]; highest tested dose + IL-2", "value": 200, "unit": "fold"}, {"measurement": "share of circulating Vγ9Vδ2 T cells in peripheral lymphocytes", "setting": "Vγ9Vδ2 T cells [1]; highest tested dose + IL-2", "value": "represented the majority of peripheral lymphocytes"}, {"measurement": "estimated EC50 value in vivo, anionic form BrHPP", "setting": "Vγ9Vδ2 T cells [1]; i.v. + IL-2", "value": "~72", "unit": "mg/kg"}, {"measurement": "estimated EC50 value of BrHPP in vivo", "setting": "Vγ9Vδ2 T cells [1]; i.v. + IL-2", "value": "around 120 mg/kg"}, {"measurement": "first slightly efficient tested dose", "setting": "Vγ9Vδ2 T cells [1]; i.v. + IL-2, Day 7", "value": 4, "unit": "mg/kg"}, {"measurement": "first slightly efficient tested dose, anionic form BrHPP", "setting": "Vγ9Vδ2 T cells [1]; i.v. + IL-2, Day 7", "value": 2.4, "unit": "mg/kg"}, {"measurement": "IFNg in the sera", "setting": "IFNγ; [4]", "value": "detectable at one hour post injection, and increased at 4 hours post injection"}, {"measurement": "Assessment of IFNγ", "setting": "IFNγ; first dose range assay 0 to 80 mg/kg, 1 and 4 hours post injection", "value": "Did not Give Significant Results"}, {"measurement": "serum level of TNFa", "setting": "TNFα; 80 mg/kg, 4 hours post BrHPP injection", "value": "not further detectable"}, {"measurement": "TNFα in the sera", "setting": "TNFα; 80 mg/kg, one hour after injection", "value": "detectable"}, {"measurement": "TNFa level", "setting": "TNFα; fifth injection 80 mg/kg without IL2, 4 hours post injection", "value": "undetectable at 4 hours post injection"}, {"measurement": "TNFa in the sera", "setting": "TNFα; [4]", "value": "detectable"}, {"measurement": "clinical or blood chemical parameters", "setting": "[2]; BrHPP alone or in association with IL2", "value": "No alteration of clinical or blood chemical parameters"}, {"measurement": "rectal temperature", "setting": "[2]; any animal treated", "value": "not significantly affected"}, {"measurement": "toxicity as assessed by vital signs or rectal temperature", "setting": "[2]; five daily injection of 0.2 mg/kg BrHPP alone", "value": "did not result in any toxicity"}, {"measurement": "toxicity, fever", "setting": "[2]; four daily injections 1, 4, 16, 32 mg/kg BrHPP alone", "value": "no toxicity nor fever was observed"}, {"measurement": "lymphocytes", "setting": "[2]; highest dose of BrHPP, at peak of Vg9Vd2 in the periphery", "value": "a lymphocytosis was observed"}, {"measurement": "patients presenting a Vγ9Vδ2 T cells amplification", "setting": "Vγ9Vδ2 T cells [3]", "value": 58, "unit": "%"}, {"measurement": "in vivo amplification of γδ cells", "setting": "γδ T cells; 4 successive injections of 20 or 80 mg/kg Phosphostim, 4 or 8 weeks apart", "value": "repeated increases of γδ cells"}, {"measurement": "γδ cell rate and absolute count in the periphery", "setting": "γδ T cells; at least 3 successive injections, 8 weeks apart, 20 or 80 mg/kg, males", "value": "significant increases"}, {"measurement": "γδ cell rate and absolute count", "setting": "γδ T cells; at least 4 successive injections, 4 weeks apart, 20 mg/kg, males", "value": "detectable increases"}]}
